Each structure is given as a SMILES string. Converted amounts (≈) assume the structure as drawn. Like-named read-outs stand apart in the source and are kept apart here.

The test system of one data set is Escherichia coli TEM. The experiment in a line: MIC by agar dilution, in vitro activity test. The format is cell-based. Conditions: 20 h, read-out: Minimal Inhibitory Concentration (MIC). On the procedure:
(§1) These MIC values were determined by agar dilution method: that is, two-fold dilutions of each of the test compounds were made and dispersed in a Mueller-Hinton Broth medium. Standard test strain which had the 10^6 CFU per ml was inoculated on the medium, and was incubated at 37° C. for 18 to 20 hours.
On the technique in general: Agar dilution tests growth on a series of plates holding different concentrations.

For data set [1], the system named is Staphylococcus aureus 503. The data set is described as follows: MIC by agar dilution, in vitro activity test. The format is cell-based. Conditions: 37° C., 18 to 20 hours, read-out: Minimal Inhibitory Concentration (MIC). On the procedure:
as §1

Data set [2] deals with Staphylococcus aureus SG511. The experiment in a line: MIC by agar dilution, in vitro activity test. Type of data set: cell-based. As to conditions: 37° C., 18 to 20 hours, read-out: Minimal Inhibitory Concentration (MIC). As for the experimental part: as §1
The subject of data set [3] is Pseudomonas aeruginosa 9071. The data set is described as follows: MIC by agar dilution, in vitro activity test. Type of data set: cell-based. Conditions: 37° C., 18 to 20 hours, read-out: Minimal Inhibitory Concentration (MIC). On the procedure: as §1
In data set [4] the test system is Streptococcus pyogenes 71A. The experiment in a line: MIC by agar dilution, in vitro activity test. The format is cell-based. As to conditions: 37° C., 18 to 20 hours, read-out: Minimal Inhibitory Concentration (MIC). As for the experimental part: as §1
Data set [5] has as its system Klebsiella aerogenes 1082E. The experiment in a line: MIC by agar dilution, in vitro activity test. Type of data set: cell-based. As to conditions: 37° C., 18 to 20 hours, read-out: Minimal Inhibitory Concentration (MIC). As for the experimental part: as §1
For the next data set, the system named is Escherichia coli DC 2. The data set is described as follows: MIC by agar dilution, in vitro activity test. The format is cell-based. As to conditions: DC2, 37° C., 18 to 20 hours, read-out: Minimal Inhibitory Concentration (MIC). As for the experimental part:
as §1

Another data set concerns Salmonella typhimurium. The experiment in a line: MIC by agar dilution, in vitro activity test. Type of data set: cell-based. As to conditions: Salmonella enterica, 37° C., 18 to 20 hours, read-out: Minimal Inhibitory Concentration (MIC). As for the experimental part: as §1
Data set [6] concerns Pseudomonas aeruginosa 1592E. The data set is described as follows: MIC by agar dilution, in vitro activity test. The format is cell-based. As to conditions: 37° C., 18 to 20 hours, read-out: Minimal Inhibitory Concentration (MIC). On the procedure: as §1
Data set [7] concerns Klebsiella aerogenes 1522E. The data set is described as follows: MIC by agar dilution, in vitro activity test. Type of data set: cell-based. Conditions: read-out: Minimal Inhibitory Concentration (MIC). On the procedure: as §1
The subject of data set [8] is Enterobacter cloace 1321E. The experiment in a line: MIC by agar dilution, in vitro activity test. Type of data set: cell-based. As to conditions: 37° C., 18 to 20 hours, read-out: Minimal Inhibitory Concentration (MIC). On the procedure: as §1
Data set [9] deals with Pseudomonas aeruginosa 1771M. The data set is described as follows: MIC by agar dilution, in vitro activity test. Type of data set: cell-based. Conditions: 20 h, read-out: Minimal Inhibitory Concentration (MIC). As for the experimental part: as §1
The subject of the next data set is Escherichia coli 078. The data set is described as follows: MIC by agar dilution, in vitro activity test. The format is cell-based. As to conditions: 37° C., 18 to 20 hours, read-out: Minimal Inhibitory Concentration (MIC). As for the experimental part:
as §1

The test system of data set [10] is Staphylococcus aureus 285. The experiment in a line: MIC by agar dilution, in vitro activity test. Type of data set: cell-based. Conditions: 37° C., 18 to 20 hours, read-out: Minimal Inhibitory Concentration (MIC). On the procedure: as §1
The subject of a further data set is Escherichia coli DC 0. The experiment in a line: MIC by agar dilution, in vitro activity test. The format is cell-based. As to conditions: DC0, 37° C., 18 to 20 hours, read-out: Minimal Inhibitory Concentration (MIC). As for the experimental part: as §1
For a further data set, the system named is Enterobacter cloace P99. The data set is described as follows: MIC by agar dilution, in vitro activity test. Type of data set: cell-based. As to conditions: P99, 20 h, read-out: Minimal Inhibitory Concentration (MIC). On the procedure: as §1
The subject of another data set is Escherichia coli 1507E. The data set is described as follows: MIC by agar dilution, in vitro activity test. Conditions: read-out: Minimal Inhibitory Concentration (MIC). The format is cell-based. On the procedure: as §1
In data set [11] the test system is Streptococcus faecium MD 8b. The experiment in a line: MIC by agar dilution, in vitro activity test. The format is cell-based. Conditions: Enterococcus faecium, MD8B, read-out: Minimal Inhibitory Concentration (MIC). As for the experimental part:
as §1

For data set [12], the system named is Pseudomonas aeruginosa 1771. The experiment in a line: MIC by agar dilution, in vitro activity test. Type of data set: cell-based. Conditions: 37° C., 18 to 20 hours, read-out: Minimal Inhibitory Concentration (MIC). On the procedure: These MIC values were determined by agar dilution method: that is, two-fold dilutions of each of the test compounds were made and dispersed in a Mueller-Hinton Broth medium.

Another data set in a line: Acute toxicity study. The format is in vivo. Conditions: in vivo. As for the experimental part:
(§2) In order to illustrate usefulness of the compounds of the present invention, acute toxicity test of the compounds synthesized in the above Examples were carried out. Each dose of the compounds dissolved in saline and buffer solution (PH=7.0) was administered by intravenous or subcutaneous injection. Mortalities of the animals was recorded seven days latter.
(§3) .asterisk-pseud. Mouse: Male ICR strain, 4 weeks

The next data set has as its system Mouse. The experiment in a line: Acute toxicity study. Type of data set: in vivo. As to conditions: 10080 min. As for the experimental part: as §2, §3
Data set [13] deals with Pseudomonas aeruginosa 9027. The experiment in a line: MIC by agar dilution, in vitro activity test. Type of data set: cell-based. Conditions: 37° C., 18 to 20 hours, read-out: Minimal Inhibitory Concentration (MIC). As for the experimental part: as §1
Data set [14] deals with Streptococcus pyogenes 77A. The data set is described as follows: MIC by agar dilution, in vitro activity test. Type of data set: cell-based. Conditions: 37° C., 18 to 20 hours, read-out: Minimal Inhibitory Concentration (MIC). As for the experimental part: as §1
Data set [15] relates to Staphylococcus aureus, Escherichia coli and Pseudomonas aeruginosa. The data set is described as follows: MIC by agar dilution, comparison in words. Type of data set: cell-based. Conditions: against Staphylococcus aureus, vs Cefotaxime. On the procedure: as §1
Where [16] appears, read: Klebsiella aerogenes 1522E, agar dilution, 37° C., 18 to 20 hours.
[17] abbreviates: Escherichia coli 1507E, agar dilution, 37° C., 18 to 20 hours.

Take `CC[N+](C)(CC=CC(N)=O)C/C=C/C1=C(C(=O)[O-])N2C(=O)[C@@H](NC(=O)/C(=N\OCCF)c3nsc(N)n3)[C@H]2SC1` (stereo partly drawn) [Example 15, 7β-[(Z)-2-(5-amino-1,2,4-thiadiazol-3-yl)-2-fluoroethoxyiminoacetamido]-3-[(E)-3-[(1-carbamoyl-1-propen-3-yl)-3-ethylmethylammonio]-1-propen-1-yl]3-cephem-4-carboxylate]: the MIC in the data set with Escherichia coli TEM was 0.05 µg/mL (≈ 0.0838 µM); in data set [1], 0.8 µg/mL (≈ 1.34 µM); in data set [2], 0.8 µg/mL (≈ 1.34 µM); in data set [3] it was 3.1 µg/mL (≈ 5.2 µM); in [4] it was 0.025 µg/mL (≈ 0.0419 µM); in data set [5], 3.1 µg/mL (≈ 5.2 µM). In addition, the MIC stood at 0.1 µg/mL (≈ 0.168 µM) in the data set on Escherichia coli DC 2; 0.2 µg/mL (≈ 0.335 µM) in the data set with Salmonella typhimurium; 3.1 µg/mL (≈ 5.2 µM) in data set [6]; 0.05 µg/mL (≈ 0.0838 µM) in data set [7] (setting [16]); 0.05 µg/mL (≈ 0.0838 µM) in data set [8]; 0.8 µg/mL (≈ 1.34 µM) in [9]. Besides, the MIC in the data set on Escherichia coli 078 is 0.025 µg/mL (≈ 0.0419 µM); in [10] it was 0.8 µg/mL (≈ 1.34 µM); in the data set with Escherichia coli DC 0, 0.012 µg/mL (≈ 0.0201 µM); in the data set with Enterobacter cloace P99 it was 0.8 µg/mL (≈ 1.34 µM); in the data set with Escherichia coli 1507E (setting [17]), 0.1 µg/mL (≈ 0.168 µM); in data set [11] (20 h) it was greater than 100 µg/mL. Moreover, the MIC in data set [12] is 3.1 µg/mL (≈ 5.2 µM). For the same molecule, the LD50 at 168 h in the data set “Acute toxicity study” (iv, i.v, male ICR mouse, 4 weeks, mortality at seven days, read-out: LD50 i.v) is greater than 2000 mg/kg; in the data set “Acute toxicity study” (sc, s.c, male ICR mouse, 4 weeks, mortality at seven days, read-out: LD50 s.c), greater than 3000 mg/kg. The “acute toxicity in intravenous routes” value with Mouse (intravenous routes) is greater than 2000 mg/kg. Further, in the data set with Mouse (subcutaneous routes), the “acute toxicity in subcutaneous routes” value is greater than 3000 mg/kg.
Regarding `CO/N=C(\C(=O)N[C@@H]1C(=O)N2C(C(=O)[O-])=C(/C=C/C[N+](C)(C)Cc3scnc3C)CS[C@H]12)c1csc(N)n1` [Example 1, 7β-[(Z)-2-(2-aminothiazol-4-yl)-2-methoxyiminoacetamido]-3-[(E)-3-[(4-methylthiazol-5-yl)-methyldimethylammonio]-1-propen-1-yl]3-cephem-4-carboxylate], the MIC with Escherichia coli TEM was 0.05 µg/mL (≈ 0.0865 µM); in [1], 0.8 µg/mL (≈ 1.38 µM); in data set [2], 0.4 µg/mL (≈ 0.692 µM); in [13] it was 12.5 µg/mL (≈ 21.6 µM); in [5] it was 6.3 µg/mL (≈ 10.9 µM); with Escherichia coli DC 2, 0.05 µg/mL (≈ 0.0865 µM). The MIC worked out at 0.1 µg/mL (≈ 0.173 µM) in the data set on Salmonella typhimurium; 0.006 µg/mL (≈ 0.0104 µM) in data set [14]; 3.1 µg/mL (≈ 5.37 µM) in [6]; 0.05 µg/mL (≈ 0.0865 µM) in data set [7] (setting [16]); 0.012 µg/mL (≈ 0.0208 µM) in [8]; 0.4 µg/mL (≈ 0.692 µM) in data set [9]. Further, the MIC in the data set on Escherichia coli 078 was less than 0.006 µg/mL; in data set [10] it was 0.4 µg/mL (≈ 0.692 µM); in the data set on Escherichia coli DC 0, 0.025 µg/mL (≈ 0.0433 µM); in the data set on Enterobacter cloace P99 it was 0.4 µg/mL (≈ 0.692 µM); in the data set on Escherichia coli 1507E (setting [17]), 0.025 µg/mL (≈ 0.0433 µM); in data set [11] (Streptococcus faecium MD 8b, agar dilution, 37° C., 18 to 20 hours), 50 µg/mL (≈ 86.5 µM). For the same molecule, the MIC in data set [12] was 6.3 µg/mL (≈ 10.9 µM). Further, the “MICs compared with Cefotaxime” value in [15] is “superior to that of Cefotaxime”. For the same molecule, the LD50 at 168 h is greater than 3000 mg/kg in the data set “Acute toxicity study” (mouse, iv, i.v, male ICR mouse, 4 weeks, mortality at seven days, read-out: LD50 i.v); greater than 2000 mg/kg in “Acute toxicity study” (mouse, iv, intravenous routes, read-out: acute toxicity in intravenous routes); greater than 4000 mg/kg in “Acute toxicity study” (mouse, sc, s.c, male ICR mouse, 4 weeks, mortality at seven days, read-out: LD50 s.c); greater than 3000 mg/kg in the data set “Acute toxicity study” (mouse, sc, subcutaneous routes, read-out: acute toxicity in subcutaneous routes).
On to `Cc1ncsc1C[N+](C)(C)C/C=C/C1=C(C(=O)[O-])N2C(=O)[C@@H](NC(=O)/C(=N\OCCF)c3nsc(N)n3)[C@H]2SC1` [Example 14, 7β-[(Z)-2-(5-amino-1,2,4-thiadiazol-3-yl)-2-fluoroethoxyiminoacetamido]-3-[(E)-3-[(4-methylthiazol-5-yl)-methyldimethylammonio]-1-propen-1-yl]3-cephem-4-carboxylate], for which the MIC was determined as 0.025 µg/mL (≈ 0.0409 µM) with Escherichia coli TEM; 0.8 µg/mL (≈ 1.31 µM) in [1]; 0.4 µg/mL (≈ 0.655 µM) in [2]; 12.5 µg/mL (≈ 20.5 µM) in data set [3]; 0.05 µg/mL (≈ 0.0819 µM) in data set [4]; 3.1 µg/mL (≈ 5.08 µM) in [5]. Moreover, the MIC in the data set with Escherichia coli DC 2 was 0.05 µg/mL (≈ 0.0819 µM); with Salmonella typhimurium, 0.1 µg/mL (≈ 0.164 µM); in [6], 3.1 µg/mL (≈ 5.08 µM); in data set [7] (Klebsiella aerogenes, 1522E, 20 h), 0.025 µg/mL (≈ 0.0409 µM); in [8], 0.012 µg/mL (≈ 0.0196 µM); in data set [9] it was 0.4 µg/mL (≈ 0.655 µM). Moreover, the MIC with Escherichia coli 078 is 0.012 µg/mL (≈ 0.0196 µM); in data set [10], 0.8 µg/mL (≈ 1.31 µM); with Escherichia coli DC 0 it was less than 0.006 µg/mL; with Enterobacter cloace P99, 0.4 µg/mL (≈ 0.655 µM); with Escherichia coli 1507E (Escherichia coli, 1507E, 20 h), 0.025 µg/mL (≈ 0.0409 µM); in data set [11] (20 h) it was greater than 100 µg/mL. In addition, the MIC in data set [12] turned out to be 3.1 µg/mL (≈ 5.08 µM). In addition, the “MICs compared with Cefotaxime” value in data set [15] is recorded as “superior to that of Cefotaxime”.

For the origin of these results see patent US6063778A, “Cephalosporin derivatives and processes for the preparation thereof” (Il-Dong Pharm. Co., Ltd., priority 1995, dated 2000).
